Test results taken from US11518783B2, “Peptides having tetrahedral mimicking groups as inhibitors of rhomboid proteases” (priority 2016, dated 2022).
Peptide text beside a SMILES is read from it. * marks the point of attachment. CHO = C-terminal aldehyde in place of the boronate, O=C*; boroAla = C[C@H](N*)B(O)O

Columns and labels:
[1] = tested on: P. falciparum 3d7 parasites; assay: P. falciparum growth (parasitemia) on human erythrocytes, flow cytometry with acridine orange; assay type: cell-based; conditions: for inhibition of parasite growth: P. falciparum on human red blood cells
Description: (§1) Inhibitor potency was verified in three independent biological experiments. […] Quantification was conducted once. C.
FIG. 6A-6C illustrates RiBn cures blood stage cultures of malaria by iteratively inhibiting parasite invasion and retarding growth. A. Blood stage cultures containing 1% well synchronized schizont stage parasitized erythrocytes were cultured in the presence or absence of 0.3 mM RiB, as indicated, and analyzed at various time points via flow cytometry (acridine orange, top panels) and fluorescent microscopy (acridine orange staining, bottom panels). After 18 hours of culturing, RiBn was washed out of one replicate of the RiBn treated cultures and monitored as above, as indicated. […] C. Quantification of absolute parasitemia at various time points in blood stage parasite cultures treated with the indicated concentrations of RiBn. In a-c, growth defect was confirmed in three independent biological experiments, while the parallel washout was conducted once and is shown.
(§2) Asexual P. falciparum 3d7 parasites (kind gift of Dr David Sullivan, Johns Hopkins School of Public Health) were cultured in human erythrocytes (O-donor, purchased from Interstate Blood Bank, Inc.) under standard conditions. Sorbitol synchronization was performed ˜1/week or as needed for experiments. For invasion assays, schizont-stage parasites were magnetically purified as previously described (MACS Miltenyi Biotec) and incubated at the appropriate parasitemia (0.2% for dose-response curves) in a 96-well plate in the presence or absence of the peptide-warhead inhibitors at 1.5% hematocrit. Flow cytometry analysis for absolute parasitemia determination and growth characterization was performed by removing a small volume of culture, washing cells in 1×PBS, resuspending them in 1×PBS containing 0.1 μg/mL acridine orange and monitoring FL1/FL3 fluorescence on a FACSCalibur instrument (BD Biosciences). Methanol-fixed, acridine orange stained parasitized erythrocytes were imaged on an inverted fluorescence microscope (Nikon) with bandpass filters. Images were overlaid in Photoshop CC (Adobe). All flow cytometry data were analyzed in FlowJo.

P. falciparum merozoites = assay: P. falciparum invasion assay with synchronized schizont-stage parasites; assay type: cell-based
Description: as §1, §2

human erythrocytes = conditions: erythrocytes cultured ~18 hours with RiBn
Description: B. Bright-field microscopy (top panel) and flow cytometry analysis (Forward Scatter vs Side Scatter, bottom panel) of erythrocytes cultured in the presence or absence of RiBn for ˜18 hours. Quantification was conducted once.

[2] = tested on: other five rhomboid proteases known to reside on the cell surface; assay: Heterologous cell-based rhomboid cleavage assay, other cell surface rhomboid enzymes and their substrates
From the text: (§3) FIG. 4A-F illustrates RiBn is a non-toxic, selective inhibitor of only PfROM4. A. Chemical structure of one embodiment of RiBn, a peptide of 10 aa with boronate warhead (SEQ ID NO: 3). Ac denotes an N-terminal acetyl moiety, while the C-terminal boronate warhead is on the right. B. Western blot analysis of EBA175 and AMA1 cleavage by PfROM4 in a heterologous cleavage assay. Co-transfected HEK293 cells were conditioned in the presence of absence of the indicated concentrations of RiBn. Cells transfected with AMA1 were conditioned in the presence or absence of the metalloprotease inhibitor (WI) BB-94 to reduce background cleavage by endogenous cellular proteases. N-terminal cleavage products were released into media (anti-GFP, top panels). Lysates were probed for expression of substrate (anti-GFP, middle panel) and enzyme (anti-HA, bottom panel). Quantification of PfROM4 inhibition by RiBn (right panel, mean±s.e.m.). […] Inhibition was analyzed in three independent biological experiments. […] Flow cytometry analysis (calcein AM fluorescence) of the same cells (right panels). […] For data in D and E, toxicity analyses were conducted in three independent biological experiments (once for each assay readout). […]
(§4) Cleavage of substrates and the activity of enzymes was determined in a slightly modified heterologous cleavage assay. […] Two-color quantitative westerns were converted to greyscale.

human rhomboid enzyme = target: T1, human rhomboid enzyme (Homo sapiens, UniProt Q9NX52); assay: Heterologous cell-based rhomboid cleavage assay, human rhomboid enzyme; conditions: transfection-based assay, analyzed in parallel
T1 construct: expressed in transfected cells; host or cells: HEK293T (ATCC CRL-11268), pcDNA3.1
T1 sequence (Q9NX52 1-303): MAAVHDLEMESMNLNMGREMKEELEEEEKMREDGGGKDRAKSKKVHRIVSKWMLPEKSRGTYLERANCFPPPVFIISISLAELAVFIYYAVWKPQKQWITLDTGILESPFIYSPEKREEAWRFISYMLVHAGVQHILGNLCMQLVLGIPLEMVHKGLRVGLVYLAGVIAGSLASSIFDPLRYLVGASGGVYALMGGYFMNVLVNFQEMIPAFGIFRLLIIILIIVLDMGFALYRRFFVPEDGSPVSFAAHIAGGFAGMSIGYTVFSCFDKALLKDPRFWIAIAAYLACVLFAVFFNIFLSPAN
From the text: as §3, §4

HEK293 cells [3] = assay: LIVE/DEAD viability of RiBn-treated HEK293 cells (fluorescence microscopy and flow cytometry); assay type: cell-based, human; conditions: highest concentrations
From the text: as §3, with “Lysates were probed for expression of substrate (anti-GFP, middle panel) and enzyme (anti-HA, bottom panel).” left out
(§5) Cell viability of RiBn-treated HEK293 cells was determined with a LIVE/DEAD Viability/Cytotoxicity Kit (Molecular Probes). Calcein AM and ethidium homodimer-1 stained cells were imaged on an inverted fluorescence microscope (Nikon) with the appropriate bandpass filters. […]

[4] = as above; assay type: cell-based, human; conditions: human, highest RiBn dose, ~24 hours, calcein AM, read-out: cell viability by flow cytometry
From the text: as §3, with “Lysates were probed for expression of substrate (anti-GFP, middle panel) and enzyme (anti-HA, bottom panel).” left out
as §5

PfROM1 = assay: Heterologous cell-based rhomboid cleavage assay, PfROM1; parameters: species or system P. falciparum; conditions: highest RiBn concentration, transfection-based assay
From the text: as §3, §4

HEK293 cells [5] = assay: Cell cycle analysis of HEK293 cells by flow cytometry (propidium iodine); assay type: cell-based, human; conditions: 24 hours
PfROM4 = assay: Heterologous cell-based rhomboid cleavage assay in co-transfected HEK293 cells, EBA175 cleavage by PfROM4; parameters: species or system P. falciparum; conditions: western of conditioned media
From the text: as §3, §4

GlpG = GlpG (Escherichia coli, UniProt P09391); conditions: GlpG in living E. coli cells, side-by-side comparison
GlpG, sequence (P09391 whole entry): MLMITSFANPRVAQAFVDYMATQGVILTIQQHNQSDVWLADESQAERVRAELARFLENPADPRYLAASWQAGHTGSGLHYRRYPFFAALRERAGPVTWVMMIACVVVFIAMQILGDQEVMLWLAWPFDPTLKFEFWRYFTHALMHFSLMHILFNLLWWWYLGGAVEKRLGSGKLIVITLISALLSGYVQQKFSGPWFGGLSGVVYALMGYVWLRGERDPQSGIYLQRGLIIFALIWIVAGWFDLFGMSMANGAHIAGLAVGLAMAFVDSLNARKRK
Description: F. Inhibition of endogenous GlpG activity in living E. coli cells grown in liquid culture. Δ is the negative control in which GlpG was deleted from the E. coli genome. Peptide inhibitors were added at the indicated concentrations directly to growing cultures. Shown are quantitative infrared anti-flag westerns, with the top band being the TatA-Flag uncut substrate, and the lower band being the cut product. Quantification of cleavage was used to calculate the EC50 concentrations (graph on right, mean±s.e.m.). Inhibition was analyzed in three independent biological experiments, each with a full spectrum of concentrations per compound.
Dose-response curves were analyzed in the R environment. Curve fitting and graphing was performed with the DRC package using data appropriate models. EC50 values are depicted along with the standard error of the fit.

Molecule | inhibition of parasite growth [1] | effect on other parasite stages including egress ([1]; delayed parasites through lifecycle stages) | growth of parasites that invaded in presence of RiBn ([1]; subsequent time points, versus vehicle-treated controls) | effect of washing out RiBn after the first round of invasion ([1]; washout after 18 hours, 0.3 mM) | maximal inhibition of merozoite invasion (P. falciparum merozoites; first round of infection, flow cytometry) | inhibition of merozoite invasion of red blood cells (P. falciparum merozoites; synchronized cultures, ~24 hours) | host cell (red blood cell) viability (human erythrocytes) | effect on cell viability or function (translation, glycosylation, trafficking, secretion of substrates) ([2]; transfected HEK293 cells, highest RiBn concentrations) | inhibition of the other five cell surface rhomboid proteases ([2]; transfection-based assay, analyzed in parallel) | inhibition of the human rhomboid enzyme (human rhomboid enzyme) | cell viability in fluorescence-based live/dead cell assay (HEK293 cells [3]) | viability [4] | inhibition of PfROM1 (PfROM1) | adherence, growth, or cell cycle distribution of treated versus untreated cells (HEK293 cells [5]) | inhibition of EBA175 processing by PfROM4 (PfROM4) | increase in potency relative to the aldehyde of the same tetrapeptide (GlpG) | increase in potency relative to the chloromethylketone of the same tetrapeptide (GlpG)
CSCC[C@H](NC(=O)[C@H](CO)NC(=O)[C@H](CCCNC(=N)N)NC(=O)[C@H](Cc1ccccc1)NC(=O)[C@H](CCCNC(=N)N)NC(=O)[C@H](CCCCN)NC(C)=O)C(=O)N[C@@H](CCC(N)=O)C(=O)N[C@@H](Cc1ccc(O)cc1)C(=O)N[C@@H](CO)C(=O)N[C@@H](C)B(O)O [RiBn] (Ac-KRFRSMQYS-boroAla) | dose-dependent inhibition of parasite growth | minimally or not affected | grew considerably slower than vehicle-treated controls | rescued parasite growth | ~50% | dose-dependent inhibition of merozoite invasion | not affecting host cell viability | no apparent effect on cell viability or function | no inhibitory effect | no inhibitory effect | no change in cell viability | 92.4% | completely unaffected | no apparent change | inhibited EBA175 processing by PfROM4 in a dose-dependent manner | – | –
Ac-VRMA-B(OH)2 | – | – | – | – | – | – | – | – | – | – | – | – | – | – | – | > 100 fold | > 400 fold
peptide-aldehyde: same peptide sequence as RiBn but replacing the boronate with an aldehyde moiety (Ac-KRFRSMQYSA-{CHO}; also: aldehyde moiety replacing the boronate, place not given here) [reference compound] | abolished inhibition | – | – | – | – | – | – | – | – | – | – | – | – | – | completely abolished PfROM4 inhibition | – | –
